Data from US7488716B2 (priority 2001, dated 2009).
Where a SMILES comes first, the peptide text is derived from it. The star is where a group is joined. Palmitoyl = CCCCCCCCCCCCCCCC(=O)*

What was measured:
perfused rat islets = test: Insulin secretion by perfused rat islets; format: cell-based; details: 50 nM peptide, 8 mM glucose
Description: Sprague Dawley rats (275-320 g) were used as the source of donor islets. Briefly, the pancreas was filled with 10 ml of cold reconstituted Liberase RI (Boehringer Manheim), harvested and incubated with additional 5 ml enzyme solution in water bath for 30 minutes. Tissue suspension was washed twice with cold 10% FBS/Hanks buffer (Gibco), resuspended in 8 ml 25% ficoll (Sigma) and then layered with 5 ml each of 23%, 20% and 11% ficoll. The islets in the 20% layer after centrifugation were removed, washed twice with cold 10% FBS/Hank buffer and resuspended in 10% FBS/RPMI 1640 media (Sigma).
Insulin secretion of perfused rat islets mediated by some peptides of the invention was measured as follows. The bi-phasic responses of insulin release stimulated by these polypeptides were tested by islet perfusion. Fifty islets were loaded in the perifusion chamber and perifused with HEPES-KRB containing 3 mM glucose at 37° C. After 60 min, islets were exposed to buffer containing 8 mM glucose with or without peptide (50 nM) and perifused for another 30 min. Fractions of perifusate were collected at 1 or 5 minute intervals for insulin determination. Insulin was measured using an ELISA kit (Alpco Diagnostics, Windham, N.H.).

glucagon receptor = target: T1, glucagon receptor (Rattus norvegicus, UniProt P30082); test: Competitive binding of peptide to the glucagon receptor in rat liver plasma membranes (125I glucagon)
T1 construct: glucagon receptor present in the plasma membranes isolated from rat liver; from tissue; host or cells: rat liver plasma membranes
T1 sequence (P30082 27-485): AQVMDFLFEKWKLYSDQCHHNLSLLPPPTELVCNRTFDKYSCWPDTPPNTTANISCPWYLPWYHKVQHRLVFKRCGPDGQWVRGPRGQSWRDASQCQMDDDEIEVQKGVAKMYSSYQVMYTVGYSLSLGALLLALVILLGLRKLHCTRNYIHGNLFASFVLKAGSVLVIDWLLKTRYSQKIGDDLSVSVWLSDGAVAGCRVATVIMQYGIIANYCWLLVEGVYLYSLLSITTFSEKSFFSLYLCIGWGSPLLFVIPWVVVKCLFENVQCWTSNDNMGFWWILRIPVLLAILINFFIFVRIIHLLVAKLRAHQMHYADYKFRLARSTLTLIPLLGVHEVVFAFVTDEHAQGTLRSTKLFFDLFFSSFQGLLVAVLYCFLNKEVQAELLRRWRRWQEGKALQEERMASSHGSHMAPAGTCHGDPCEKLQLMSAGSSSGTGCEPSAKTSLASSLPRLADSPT
Description: The wet weight of the livers was determined and the tissue minced in 5 volumes of ice cold TES buffer and a slurry prepared using a polytron. All buffers and spins were kept at 4° C. The slurry was further homogenized using three strokes of a handheld dounce homogenizer. The homogenate was passed through several layers of cheesecloth and spun at 25,000×g for 10 minutes. Pellets were homogenized in 22.1 ml TES buffer using 10 strokes of a handheld dounce homogenizer. Twenty-seven point nine milliliters of 2.4 M sucrose in TE was added and mixed well. The homogenate was distributed among several tubes, and each tube was overlaid with 7 ml of TES buffer. The tubes were spun at 120,000×g for 60 minutes. The plasma membranes were removed from the interface that formed during the spin, diluted in TES and concentrated using a 15 minute spin at 200,000×g. The resulting pellet was again homogenized in 9.8 ml TES buffer, combined with 10.3 ml 2.4M sucrose, overlaid with 7 ml TES, and centrifuged at 180,000×g for 30 min. […] The final pellet was resuspended in TES. Plasma membranes were stored at −80° C. until ready for use.
(§1) Competitive binding of some polypeptides of the invention to rat liver plasma membranes was measured as follows. Ninety-six-well GF/C filtration plates (Millipore, Bedford, Mass.) were blocked with 0.1% PEI for at least one hour and washed twice with binding buffer consisting of 20 mM Tris, 2 mM EDTA, pH 7.5, 1 mg/ml BSA, and 1 mg/ml bacitracin. […] The plates were dried, scintillant was added to each well, and cpm per well determined using a Wallac Microbeta counter.

GLP-1 receptor [1] = target: T2, GLP-1 receptor (Rattus norvegicus, UniProt P32301); test: Peptide signaling through GLP-1 receptor, cAMP scintillation proximity assay in RINm5F cells; format: cell-based; details: for GLP1 Relative Potency: EC50 of native GLP-1 (7-36) divided by EC50 of polypeptide x 100, cAMP in RINm5F cells; for Emax: RIN-m5F, read-out: % GLP1 max
T2 construct: endogenous in cells; host or cells: RINm5F cells
T2 sequence (P32301 22-463): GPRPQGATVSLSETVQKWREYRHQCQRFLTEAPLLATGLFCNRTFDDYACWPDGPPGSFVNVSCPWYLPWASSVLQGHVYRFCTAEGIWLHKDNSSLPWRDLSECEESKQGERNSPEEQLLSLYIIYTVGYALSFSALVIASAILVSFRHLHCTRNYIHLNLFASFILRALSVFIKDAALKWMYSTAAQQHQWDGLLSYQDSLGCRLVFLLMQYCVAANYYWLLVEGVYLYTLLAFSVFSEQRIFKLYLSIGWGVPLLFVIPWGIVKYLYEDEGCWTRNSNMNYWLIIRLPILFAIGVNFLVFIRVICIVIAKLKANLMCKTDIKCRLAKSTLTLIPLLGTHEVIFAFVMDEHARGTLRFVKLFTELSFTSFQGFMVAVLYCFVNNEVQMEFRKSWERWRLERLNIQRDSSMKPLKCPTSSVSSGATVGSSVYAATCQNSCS
Description: The media was removed and the cells were washed twice with PBS. […] For assay of peptides conjugated with fatty acid, the BSA was omitted from the incubation buffer. The incubation buffer was removed, and the cells were lysed in the lysis reagent provided with the cAMP Scintillation Proximity Assay (SPA) direct screening assay system (Amersham Pharmacia Biotech Inc, Piscataway, N.J.). The amount of cAMP (in pmol) present in the lysates was determined following instructions provided with this kit.
The amount of cAMP (in pmol) produced at each concentration of peptide was plotted and analyzed by nonlinear regression using Prizm software to determine the EC50 for each peptide.

[2] = Intraperitoneal glucose tolerance testing (IPGTT) in rats or mice; format: in vivo; details: ipGTT in mice 3 hours post dosing with 100 μg/kg peptide
Description: Blood glucose levels during intraperitoneal glucose tolerance testing in rats or mice by some polypeptides of the invention were measured as follows. The in vivo activity of the polypeptides of the invention when administered subcutaneously was examined in rats or mice. Rats or mice fasted overnight were given a subcutaneous injection of control or peptide (100 μg/kg). Basal blood glucose was measured prior to administration of peptides or three or 17 hours after administration of derivatized peptides, and the rats or mice were given 2 g/kg of glucose intraperitoneally. Blood glucose was measured again after 15, 30 and 60 minutes in rats or 30 and 60 minutes in mice.

GLP-1 receptor [3] = target: T2, GLP-1 receptor; test: Competitive binding of peptide to the GLP-1 receptor in RINm5F cell plasma membranes (125I GLP-1); details: read-out: GLP1 RIN IC50
Description: Flasks of RINm5F cells were washed with PBS, scraped in 20 mM Hepes-1 mM EDTA-250 mM sucrose buffer containing protease inhibitors (HES) and homogenized in a dounce homogenizer followed by repeated resuspension through a 23 gauge needle. Unbroken cells and nuclei were removed by centrifugation at 500×g for 5 minutes. The pellet was resuspended in HES buffer using a 23 gauge needle and the centrifugation was repeated. The supernatants from the two spins were combined and centrifuged at 40,000×g for 20 min. The resulting plasma membrane pellet was resuspended in HES buffer using a 23 gauge needle followed by a 25 gauge needle. Membranes were stored at −80° C. until use.
as §1, with “RINm5F cell” for “rat liver”, “0.3%” for “0.1%”

CC[C@H](C)[C@H](NC(=O)[C@H](Cc1ccccc1)NC(=O)[C@H](CCC(=O)O)NC(=O)[C@H](CCCCN)NC(=O)[C@H](C)NC(=O)[C@H](C)NC(=O)[C@H](CCC(N)=O)NC(=O)CNC(=O)[C@H](CCC(=O)O)NC(=O)[C@H](CC(C)C)NC(=O)[C@H](Cc1ccc(O)cc1)NC(=O)[C@H](CO)NC(=O)[C@H](CO)NC(=O)[C@@H](NC(=O)[C@H](CC(=O)O)NC(=O)[C@H](CO)NC(=O)[C@@H](NC(=O)[C@H](Cc1ccccc1)NC(=O)[C@@H](NC(=O)CNC(=O)[C@H](CCC(=O)O)NC(=O)[C@H](C)NC(=O)[C@@H](N)Cc1c[nH]cn1)[C@@H](C)O)[C@@H](C)O)C(C)C)C(=O)N[C@@H](C)C(=O)N[C@@H](Cc1c[nH]c2ccccc12)C(=O)N[C@@H](CC(C)C)C(=O)N[C@H](C(=O)N[C@@H](CCCCN)C(=O)NCC(=O)N[C@@H](CCCNC(=N)N)C(N)=O)C(C)C [GLP-1, reference compound]
Increase of insulin secretion from perfused islets (perfused rat islets): approximately 2 fold

CCCCCCCCCCCCCCCC(=O)NCCCC[C@H](NC(=O)[C@@H](NC(=O)[C@H](Cc1ccccc1)NC(=O)[C@H](CCC(=O)O)NC(=O)[C@H](CCCNC(=N)N)NC(=O)[C@H](C)NC(=O)[C@H](CCCNC(=N)N)NC(=O)[C@H](CCCNC(=N)N)NC(=O)[C@H](C)NC(=O)[C@H](CC(=O)O)NC(=O)[C@H](CC(C)C)NC(=O)[C@H](Cc1ccc(O)cc1)NC(=O)[C@H](CCCNC(=N)N)NC(=O)[C@H](C)NC(=O)[C@H](Cc1ccc(O)cc1)NC(=O)[C@H](CC(=O)O)NC(=O)[C@H](CO)NC(=O)[C@@H](NC(=O)[C@H](Cc1ccccc1)NC(=O)[C@@H](NC(=O)CNC(=O)[C@H](CCC(N)=O)NC(=O)[C@H](CO)NC(=O)[C@@H](N)Cc1c[nH]cn1)[C@@H](C)O)[C@@H](C)O)[C@@H](C)CC)C(=O)N[C@@H](Cc1c[nH]c2ccccc12)C(=O)N[C@@H](CC(C)C)C(=O)N[C@H](C(=O)N[C@@H](CCCNC(=N)N)C(=O)NCC(=O)N[C@@H](CCCNC(=N)N)C(=O)NCC(=O)O)C(C)C [G90]
IC50 (glucagon receptor): 726 nM | GLP1 Relative Potency (GLP-1 receptor [1]): 0.8% | Emax (GLP-1 receptor [1]): 83.5% | In vivo Decrease IpGTT AUC [2]: 13% | IC50 (GLP-1 receptor [3]): 25.4 nM

CCCCCCCCCCCCCCCC(=O)NCCCC[C@H](NC(=O)[C@H](C)NC(=O)[C@H](CCCNC(=N)N)NC(=O)[C@H](CCCNC(=N)N)NC(=O)[C@H](C)NC(=O)[C@H](CC(=O)O)NC(=O)[C@H](CC(C)C)NC(=O)[C@H](Cc1ccc(O)cc1)NC(=O)[C@H](CCCCN)NC(=O)[C@H](C)NC(=O)[C@H](Cc1ccc(O)cc1)NC(=O)[C@H](CC(=O)O)NC(=O)[C@H](CO)NC(=O)[C@@H](NC(=O)[C@H](Cc1ccccc1)NC(=O)[C@@H](NC(=O)CNC(=O)[C@H](CCC(N)=O)NC(=O)[C@H](CO)NC(=O)[C@@H](N)Cc1c[nH]cn1)[C@@H](C)O)[C@@H](C)O)C(=O)N[C@@H](CCC(=O)O)C(=O)N[C@@H](Cc1ccccc1)C(=O)N[C@H](C(=O)N[C@@H](C)C(=O)N[C@@H](Cc1c[nH]c2ccccc12)C(=O)N[C@@H](CC(C)C)C(=O)N[C@H](C(=O)N[C@@H](CCCCN)C(=O)NCC(=O)N[C@@H](CCCNC(=N)N)C(N)=O)C(C)C)[C@@H](C)CC [G87] (H-HSQGTFTSDYAKYLDARRAK(Palmitoyl)EFIAWLVKGR-NH2; N-terminus assumed)
IC50 (glucagon receptor): 620 nM | GLP1 Relative Potency (GLP-1 receptor [1]): 6.1% | Emax (GLP-1 receptor [1]): 100% | In vivo Decrease IpGTT AUC [2]: 13% | IC50 (GLP-1 receptor [3]): 98.6 nM

CCCCCCCCCCCCCCCC(=O)NCCCC[C@H](NC(=O)[C@H](CCCNC(=N)N)NC(=O)CNC(=O)[C@H](CCCCN)NC(=O)[C@@H](NC(=O)[C@H](CC(C)C)NC(=O)[C@H](Cc1c[nH]c2ccccc12)NC(=O)[C@H](C)NC(=O)[C@@H](NC(=O)[C@H](Cc1ccccc1)NC(=O)[C@H](CCC(=O)O)NC(=O)[C@H](CCCCN)NC(=O)[C@H](C)NC(=O)[C@H](CCCNC(=N)N)NC(=O)[C@H](CCCNC(=N)N)NC(=O)[C@H](C)NC(=O)[C@H](CC(=O)O)NC(=O)[C@H](CC(C)C)NC(=O)[C@H](Cc1ccc(O)cc1)NC(=O)[C@H](CCCCN)NC(=O)[C@H](C)NC(=O)[C@H](Cc1ccc(O)cc1)NC(=O)[C@H](CC(=O)O)NC(=O)[C@H](CO)NC(=O)[C@@H](NC(=O)[C@H](Cc1ccccc1)NC(=O)[C@@H](NC(=O)CNC(=O)[C@H](CCC(N)=O)NC(=O)[C@H](CO)NC(=O)[C@@H](N)Cc1c[nH]cn1)[C@@H](C)O)[C@@H](C)O)[C@@H](C)CC)C(C)C)C(=O)O [G88] (H-HSQGTFTSDYAKYLDARRAKEFIAWLVKGRK(Palmitoyl)-OH; N-terminus and C-terminus assumed)
IC50 (glucagon receptor): 350 nM | GLP1 Relative Potency (GLP-1 receptor [1]): 2.3% | Emax (GLP-1 receptor [1]): 118% | In vivo Decrease IpGTT AUC [2]: 16% | IC50 (GLP-1 receptor [3]): 109 nM

CCCCCCCCCCCCCCCC(=O)NCCCC[C@H](NC(=O)CNC(=O)[C@H](CCCNC(=N)N)NC(=O)CNC(=O)[C@H](CCCNC(=N)N)NC(=O)[C@@H](NC(=O)[C@H](CC(C)C)NC(=O)[C@H](Cc1c[nH]c2ccccc12)NC(=O)[C@H](CCCCN)NC(=O)[C@@H](NC(=O)[C@H](Cc1ccccc1)NC(=O)[C@H](CCC(=O)O)NC(=O)[C@H](CCCNC(=N)N)NC(=O)[C@H](C)NC(=O)[C@H](CCCNC(=N)N)NC(=O)[C@H](CCCNC(=N)N)NC(=O)[C@H](C)NC(=O)[C@H](CC(=O)O)NC(=O)[C@H](CC(C)C)NC(=O)[C@H](Cc1ccc(O)cc1)NC(=O)[C@H](CCCNC(=N)N)NC(=O)[C@H](C)NC(=O)[C@H](Cc1ccc(O)cc1)NC(=O)[C@H](CC(=O)O)NC(=O)[C@H](CO)NC(=O)[C@@H](NC(=O)[C@H](Cc1ccccc1)NC(=O)[C@@H](NC(=O)CNC(=O)[C@H](CCC(N)=O)NC(=O)[C@H](CO)NC(=O)[C@@H](N)Cc1c[nH]cn1)[C@@H](C)O)[C@@H](C)O)[C@@H](C)CC)C(C)C)C(=O)O [G182] (H-HSQGTFTSDYARYLDARRAREFIKWLVRGRGK(Palmitoyl)-OH; N-terminus and C-terminus assumed)
IC50 (glucagon receptor): 220 nM | GLP1 Relative Potency (GLP-1 receptor [1]): 1.4% | Emax (GLP-1 receptor [1]): 104% | In vivo Decrease IpGTT AUC [2]: 14% | IC50 (GLP-1 receptor [3]): 12.6 nM
